Assay results published in ChEMBL document CHEMBL1152450 (J Med Chem, 2009).
pEC50: −log10 of the molar value.

system: SARS-CoV; experiment: Antiviral activity against SARS coronavirus in african green monkey Vero E6 cells assessed as inhibition of replication after 48 hrs; format: functional, organism-based, Severe acute respiratory syndrome-related coronavirus; settings: Severe acute respiratory syndrome-related coronavirus, Vero, 48 h; read-out: EC50

Question: With `Cc1ccc(CN)cc1C(=O)N[C@H](C)c1cccc2ccccc12` as the compound, how does the pEC50 read?
Answer: 5.22

Question: With `CNCc1ccc(C)c(C(=O)N[C@H](C)c2cccc3ccccc23)c1` as the compound, how does the pEC50 read?
Answer: 5.28

same assay, conditions: vero

Question: Which EC50 does the source give for `Cc1ccccc1C(=O)N[C@H](C)c1ccc2ccccc2c1` here?
Answer: Not Active

Question: Which EC50 does the source give for `Cc1cccc(C(=O)N[C@H](C)c2ccc3ccccc3c2)c1` here?
Answer: Not Active

Question: Which EC50 does the source give for `Cc1ccccc1C(=O)NC(C)c1ccc2ccccc2c1` (racemic) here?
Answer: Not Active

Question: For `Cc1ccc(N)cc1C(=O)NC(C)(C)c1cccc2ccccc12`, which EC50 is on record?
Answer: Not Active

Question: Which EC50 does the source give for `Cc1ccc(CNC(=O)OC(C)(C)C)cc1C(=O)N[C@H](C)c1cccc2ccccc12` here?
Answer: Not Active

system: not listed separately; experiment: Inhibition of SARS coronavirus PLpro residues 1541-1855 expressed in Escherichia coli; design: species or system Severe acute respiratory syndrome-related coronavirus; settings: not given

Question: For `CCC(NC(=O)c1ccccc1C)c1ccc2ccccc2c1` (racemic), which IC50 is on record?
Answer: Not Active

Question: For `C[C@@H](NC(=O)c1ccc(NC(=O)OC(C)(C)C)cc1)c1ccc2ccccc2c1`, which IC50 is on record?
Answer: Not Active

Question: For `C[C@@H](NC(=O)c1ccccc1O)c1ccc2ccccc2c1`, which IC50 is on record?
Answer: Not Active

Question: Which IC50 does the source give for `Cc1ccccc1C(=O)NC(c1ccccc1)c1ccc2ccccc2c1` (racemic) here?
Answer: Not Active
